Consider 2 molecules from patent US4201865A, “Novel prostaglandin analogues” (Gruppo Lepetit S.p.A., priority 1978, dated 1980).

The assay has as its system acidic gastric secretion. Kind of assay: inhibition of the acidic gastric hypersecretion induced by histamine in dogs (gastric fistula and Haidenhain pouche). Type of assay: in vivo, mongrel dogs. The note with it: mean of four dogs; for % inhibition of the acidic gastric secretion over the controls in the H.P.: histamine 160 μg kg^-1 h^-1, denervated Haidenhain pouche; for % inhibition of the acidic gastric secretion over the controls in the G.F.: histamine 160 μg kg^-1 h^-1, innervated gastric fistula (main stomach). The protocol:
In the actual practice, the gastric antisecretory properties were evaluated on the basis of their effectiveness in inhibiting the hyperacidity induced by hystamine in dogs. Hystamine, which is a potent stimulator of the acidic gastric secretion (see Bertaccini et al. Eur. Journ. Pharmacol., 28, 360, 1974), was administered intravenously by continuous infusion during the experiments.
A group of four mongrel dogs weighing approximately 20 Kg was used in each experiments.
The dogs were surgically operated in the stomachs according to the method described by Bertaccini et al. (see above), in order to provide each animal with an innervated gastric fistula (G.F.) or main stomach, and a denervated Haidenhain pouche (H.P.).
The main stomach and the Haidenhain pouche were each equipped with a cannula in order to allow the gastric juices to drain to the exterior by gravity. The two surgically prepared cavities allow to determine if the antisecretory effect has to be ascribed to a direct action of the tested compounds on the oxyntic cells ie., the cells of the gastric walls secreting acidity, (inhibition of the hyperacidity produced both by G.F. and H.P.) or if it is mediated by the autonomous nervous system (inhibition of the hyperacidity produced only by G.F.). After a period of four to five weeks which was allowed to the animals for recovery, the dogs were administered intravenously with histamine in the amount of 160 micrograms of hystamine per kg. of body weight per hour (160 μg-kg^-1 h^-1) in order to stimulate the acidic secretion both in the G.F. and in the H.P. The maximum secretory effect was reached after approximately 1 hour and the infusion of histamine was prolonged for approximately three further hours. During the whole period of infusion, the acidic output was collected every ten minutes and titrated by means of NaOH 0.1 to pH 7.0 on an automatic titrator (Radiometer, Copenhagen). The so-obtained values (mean of four dogs) were considered as the "control values". Food, but not water, was withheld 18 hours before each experiments. At the beginning, the dogs were administered with 160 μg kg^-1 h^-1 of histamine. After reaching the maximum secretory value ie., approximately after 1 hour, the compound to be tested was administered intravenously at predetermined dosages per kg. of body weight during one hour, while the infusion of histamine at the above dosage was carried on. During this period the acidic output both from the G.F. and H.P. was collected every ten minutes and titrated as described above.
By means of the so obtained values (mean of four dogs) and the corresponding "control values" ie., the values obtained by determining the acidic output for one hour after the maximum secretory effect due to histamine was reached, it was possible to establish, by obvious calculations, the percent inhibition of the acidic gastric secretion both from the G.F. and the H.P. of the tested compounds versus the controls.
Representative experiments have shown that dosages varying from about 50 to about 100 μg/kg hour practically block the gastric hyperacidity induced by histamine both in the G.F. and in the H.P. This can be seen from the following table, wherein the results obtained by testing the compound of example 2 having [α]D^20 =-77.7 (c=0.67% in CHCl3) and the compound of example 5 having [α]D^20 =-45 (c=0.46% in CHCl3) are reported: […]

[1] abbreviates: 10 μg kg^-1 h^-1, intravenous during one hour.
The mark [2] stands for this setting: 50 μg kg^-1 h^-1, intravenous during one hour.
[3] abbreviates: 100 μg kg^-1 h^-1, intravenous during one hour.
The mark [4] stands for this setting: 25 μg kg^-1 h^-1, intravenous during one hour.

As to `CCCCC(C)(OC)C(O)/C=C/[C@H]1[C@H](O)CC(=O)[C@@H]1C/C=C\CCCC(=O)OC` (single isomer, unassigned) [Example 5, 11α,15-Dihydroxy-16-methyl-16-methoxy-9-oxo-prosta-5(Z), 13(E)-diene-1-oic acid methyl esters], the “% inhibition of the acidic gastric secretion over the controls in the H.P.” value by setting is: under setting [1], 20%; under setting [2], 55%; under setting [3], 100%. The “% inhibition of the acidic gastric secretion over the controls in the G.F.” value was determined as 20% under setting [1], 55% under setting [2] and 100% under setting [3].

On to `CCCCC(OC)C(O)/C=C/[C@H]1[C@H](O)CC(=O)[C@@H]1C/C=C\CCCC(=O)OC` (single isomer, unassigned) [Example 2, 11α, 15-Dihydroxy-16-methoxy-9-oxo-prosta-5(Z),13(E)-diene-1-oic-acid methyl esters], for which the “% inhibition of the acidic gastric secretion over the controls in the H.P.” value is, setting by setting: under setting [1], 25%; under setting [4], 50%; under setting [2], 95%. In addition, the “% inhibition of the acidic gastric secretion over the controls in the G.F.” value runs as follows: under setting [1], 25%; under setting [4], 50%; under setting [2], 95%.
